Consider 40 compounds from patent publication US10287251B2, “Pyrazole derivative or pharmaceutically acceptable salt thereof” (KISSEI PHARMACEUTICAL CO., LTD., priority 2015, dated 2019).

The structures appear in SMILES notation.

For the first test, the target named is T1, TRPM8 (Rattus norvegicus, UniProt Q8R455).
T1 construct: from tissue; host or cells: whole animal, female SD rats (in vivo)
T1 sequence (Q8R455 whole entry): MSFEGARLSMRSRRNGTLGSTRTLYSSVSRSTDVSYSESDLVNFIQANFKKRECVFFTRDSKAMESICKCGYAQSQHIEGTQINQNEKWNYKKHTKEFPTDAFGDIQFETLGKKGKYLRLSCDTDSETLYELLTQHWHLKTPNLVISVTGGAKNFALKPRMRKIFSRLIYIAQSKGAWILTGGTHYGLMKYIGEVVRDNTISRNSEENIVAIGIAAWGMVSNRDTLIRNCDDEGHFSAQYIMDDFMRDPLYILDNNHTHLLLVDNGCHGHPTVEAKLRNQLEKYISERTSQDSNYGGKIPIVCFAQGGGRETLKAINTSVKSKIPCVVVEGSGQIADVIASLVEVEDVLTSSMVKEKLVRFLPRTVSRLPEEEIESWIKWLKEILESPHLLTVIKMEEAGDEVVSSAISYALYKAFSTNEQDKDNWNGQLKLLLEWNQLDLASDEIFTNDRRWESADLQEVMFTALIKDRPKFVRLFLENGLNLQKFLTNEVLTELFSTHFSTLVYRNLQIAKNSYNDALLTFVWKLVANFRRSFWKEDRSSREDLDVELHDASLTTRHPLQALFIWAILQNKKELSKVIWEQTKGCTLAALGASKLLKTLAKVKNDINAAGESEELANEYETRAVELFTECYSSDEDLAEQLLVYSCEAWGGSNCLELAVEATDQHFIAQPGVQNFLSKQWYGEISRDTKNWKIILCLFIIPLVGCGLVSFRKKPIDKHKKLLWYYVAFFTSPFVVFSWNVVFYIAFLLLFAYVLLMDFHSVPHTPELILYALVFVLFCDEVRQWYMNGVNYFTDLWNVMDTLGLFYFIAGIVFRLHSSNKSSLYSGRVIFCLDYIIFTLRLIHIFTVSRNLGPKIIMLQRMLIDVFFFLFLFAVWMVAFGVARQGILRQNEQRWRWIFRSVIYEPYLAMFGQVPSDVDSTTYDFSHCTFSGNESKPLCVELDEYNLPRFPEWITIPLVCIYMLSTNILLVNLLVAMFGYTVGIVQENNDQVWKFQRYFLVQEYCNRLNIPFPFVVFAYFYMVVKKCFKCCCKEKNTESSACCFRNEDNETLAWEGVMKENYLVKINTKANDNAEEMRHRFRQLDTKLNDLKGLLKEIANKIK
The test can be described thus: Confirmation test of inhibitory effects on icilin-induced wet-dog shakes. Particulars: female SD rats, oral dose 0.3 mg/kg, icilin 1 mg/kg i.p. 1 hour after dosing, shakes counted for 5 minutes. Format: in vivo. An excerpt: Further, TRPM8 inhibitory activity can be evaluated by the efficacy inhibiting the wet-dog shake action which is induced by the administration of Icilin, TRPM8 agonist. Furthermore, an effect on overactive bladder (OAB) can be evaluated by an elongation of micturition interval against overactive bladder induced by acetic acid in accordance with a similar method described in J. Urol., 2001, 166, 1142.
Confirmation Test of Inhibitory Effects on Icilin-induced Wet-dog Shakes
Test compounds were dissolved in dimethylacetamide (wako), and 0.5% methylcellulose solution (wako) was added to make the solution or suspension containing 5% of dimethylacetatnide. At a dose of 0.3 to 10 mg/kg/5mL of test compounds were orally administered to female SD rats. After 1 hour, wet-dog shakes were induced by the intraperitoneal injection of icilin (1 mg/kg) which was dissolved in polyethylene glycol 400 (wako). From 5 minutes after the administration of icilin, wet-dog shakes were counted for 5 minutes. For control example, vehicle (a mixture of dimethylacetamide (wako): 0.5% methylcellulose (wako)=5:95) was administrated similarly, and the number of wet-dog shakes was counted in the same manner. A percent inhibition of wet-dog shakes by test compound was calculated from the following formula: [1-(test compound wet-dog shake count/vehicle wet-dog shake count)]×100.
On to `CO[C@H](CO)[C@@H](Cc1ccccn1)NC(=O)c1ccccc1-c1n[nH]c(-c2ccc(F)cc2)c1F` [Example 43-5], for which the “% inhibition of Wet-Dog Shake” value is reported as 98%.

In the case of `CO[C@H](CO)[C@@H](Cc1ccccn1)NC(=O)c1ccccc1-c1cc(-c2ccc(F)cc2)[nH]n1` [Example 43-13], the “% inhibition of Wet-Dog Shake” value is recorded as 90%.

Consider `O=C(N[C@H](Cc1ncccc1F)[C@H](F)CO)c1cccc(F)c1-c1cc(-c2ccc(F)cc2)[nH]n1` [Example 43-41], for which the “% inhibition of Wet-Dog Shake” value amounted to 54%.

Staying with this test, now noted: female SD rats, oral dose 1 mg/kg, icilin 1 mg/kg i.p. 1 hour after dosing, shakes counted for 5 minutes.
Take `CO[C@H](CO)[C@@H](Cc1ccccn1)NC(=O)c1cccc(F)c1-c1n[nH]c(-c2ccc(F)cc2)c1F` [Example 43-14]: the “% inhibition of Wet-Dog Shake” value was 100%.

On to `CCO[C@H](CO)[C@@H](Cc1ccccn1)NC(=O)c1cccc(F)c1-c1cc(-c2ccc(F)cc2)[nH]n1` [Example 43-15], for which the “% inhibition of Wet-Dog Shake” value was determined as 73%.

In the case of `CO[C@H](CO)[C@@H](Cc1ccccn1)NC(=O)c1ccccc1-c1n[nH]c(-c2ccc(Cl)cc2)c1F` [Example 43-18], the “% inhibition of Wet-Dog Shake” value came to 85%.

As to `O=C(N[C@H](Cc1ccccn1)[C@@H](F)CO)c1cccc(F)c1-c1cc(-c2ccc(F)cc2)[nH]n1` [Example 43-23], the “% inhibition of Wet-Dog Shake” value amounted to 100%.

`O=C(N[C@H](Cc1ccccn1)[C@H](F)CO)c1cccc(F)c1-c1cc(-c2ccc(F)cc2)[nH]n1` [Example 43-24]: the “% inhibition of Wet-Dog Shake” value is given as 100%.

With `O=C(N[C@H](Cc1ncccn1)[C@H](F)CO)c1cccc(F)c1-c1cc(-c2ccc(F)cc2)[nH]n1` [Example 43-29], the “% inhibition of Wet-Dog Shake” value is listed as 79%.

Regarding `O=C(N[C@H](Cn1cccn1)[C@H](F)CO)c1cccc(F)c1-c1n[nH]c(-c2ccc(F)cc2)c1F` [Example 43-39], the “% inhibition of Wet-Dog Shake” value is 81%.

Consider `O=C(N[C@H](Cc1ccccn1)C(F)(F)CO)c1cccc(F)c1-c1cc(-c2ccc(F)cc2)[nH]n1` [Example 50-5], for which the “% inhibition of Wet-Dog Shake” value came to 100%.

`O=C(N[C@H](Cc1ncccn1)[C@H](F)CO)c1cccc(F)c1-c1n[nH]c(-c2ccc(F)cc2)c1F` [Example 50-10]: the “% inhibition of Wet-Dog Shake” value was 56%.

Staying with this test, now noted: female SD rats, oral dose 3 mg/kg, icilin 1 mg/kg i.p. 1 hour after dosing, shakes counted for 5 minutes.
For `NC(=O)[C@@H](Cc1ccccn1)NC(=O)c1cccc(F)c1-c1cc(-c2ccc(F)cc2)[nH]n1` [Example 37-1, (2R)-2-{3-Fluoro-2-[-5-(4-fluorophenyl)-1H-pyrazol-3-yl]benzoylamino}-3-(pyridin-2-yl)propanamide], the “% inhibition of Wet-Dog Shake” value came out at 38%.

As for `O=C(N[C@@H](CO)Cc1ncccc1Cl)c1cccc(F)c1-c1cc(-c2ccc(F)cc2)[nH]n1` [Example 39-2], the “% inhibition of Wet-Dog Shake” value worked out at 50%.

On to `CO[C@@H](CO)[C@@H](Cc1ccccn1)NC(=O)c1cccc(F)c1-c1cc(-c2ccc(F)cc2)[nH]n1` [Example 43-2], for which the “% inhibition of Wet-Dog Shake” value came to 100%.

For `CO[C@H](CO)[C@@H](Cc1ccccn1)NC(=O)c1cccc(Cl)c1-c1cc(-c2ccc(F)cc2)[nH]n1` [Example 43-4], the “% inhibition of Wet-Dog Shake” value was found to be 77%.

Consider `COC(c1ccccn1)[C@H](CO)NC(=O)c1cccc(F)c1-c1cc(-c2ccc(F)cc2)[nH]n1` (stereo partly shown) [Example 43-6], for which the “% inhibition of Wet-Dog Shake” value was found to be 49%.

On to `COC(c1ccccn1)[C@H](CCO)NC(=O)c1cccc(F)c1-c1cc(-c2ccc(F)cc2)[nH]n1` (stereo partly shown) [Example 43-9], for which the “% inhibition of Wet-Dog Shake” value stood at 89%.

On to `COC(c1ccccn1)[C@H](CO)NC(=O)c1cccc(F)c1-c1cc(-c2ccc(F)cc2)[nH]n1` (stereo partly shown) [Example 43-11], for which the “% inhibition of Wet-Dog Shake” value is listed as 88%.

`COC(c1ccccn1)[C@H](CO)NC(=O)c1cccc(Cl)c1-c1cc(-c2ccc(F)cc2)[nH]n1` (stereo partly shown) [Example 43-12]: the “% inhibition of Wet-Dog Shake” value came out at 92%.

Turning to `COC(c1ccccn1)[C@H](CO)NC(=O)c1cccc(F)c1-c1n[nH]c(-c2ccc(F)cc2)c1F` (stereo partly shown) [Example 43-16], the “% inhibition of Wet-Dog Shake” value was found to be 97%.

With `COC(c1ccccn1)[C@H](CO)NC(=O)c1ccccc1-c1n[nH]c(-c2ccc(F)cc2)c1F` (stereo partly shown) [Example 43-17], the “% inhibition of Wet-Dog Shake” value is 78%.

With `CCOC(c1ccccn1)[C@H](CO)NC(=O)c1cccc(F)c1-c1cc(-c2ccc(F)cc2)[nH]n1` (stereo partly shown) [Example 43-22], the “% inhibition of Wet-Dog Shake” value is 98%.

As for `O=C(N[C@@H](Cc1ccccn1)[C@H](F)CO)c1cccc(F)c1-c1cc(-c2ccc(F)cc2)[nH]n1` [Example 43-25], the “% inhibition of Wet-Dog Shake” value amounted to 100%.

For `CO[C@H](CO)[C@@H](Cc1ccccn1)NC(=O)c1cccc(F)c1-c1cc(-c2ccc(F)cc2F)[nH]n1` [Example 43-34], the “% inhibition of Wet-Dog Shake” value is on record as 100%.

Take `CO[C@H](CO)[C@@H](Cc1ccccn1)NC(=O)c1cccc(F)c1-c1n[nH]c(-c2ccc(F)cc2)c1Cl` [Example 43-36]: the “% inhibition of Wet-Dog Shake” value is recorded as 31%.

For the compound `O=C(N[C@H](Cn1cccn1)[C@H](F)CO)c1cccc(F)c1-c1cc(-c2ccc(Cl)cc2)[nH]n1` [Example 43-44], the “% inhibition of Wet-Dog Shake” value turned out to be 69%.

For the compound `O=C(N[C@H](Cn1cccn1)[C@H](F)CO)c1cccc(Cl)c1-c1cc(-c2ccc(F)cc2)[nH]n1` [Example 43-45], the “% inhibition of Wet-Dog Shake” value is listed as 40%.

Regarding `O=C(N[C@H](Cn1cccn1)[C@H](F)CO)c1cccc(F)c1-c1cc(-c2ccc(F)cc2F)[nH]n1` [Example 43-46], the “% inhibition of Wet-Dog Shake” value is given as 70%.

Take `O=C1N[C@@H]([C@@H](Cc2ccccn2)NC(=O)c2cccc(F)c2-c2cc(-c3ccc(F)cc3)[nH]n2)CO1` [Example 47-1, 3-Fluoro-2-[5-(4-fluorophenyl)-1H-pyrazol-3-yl]-N-[(1R)-1-((4S)-2-oxo-1,3-oxazolidin-4-yl)-2-(pyridin-2-yl)ethyl]benzamide]: the “% inhibition of Wet-Dog Shake” value worked out at 48%.

In the case of `O=C1OC[C@H]([C@@H](Cc2ccccn2)NC(=O)c2cccc(F)c2-c2cc(-c3ccc(F)cc3)[nH]n2)O1` [Example 47-2], the “% inhibition of Wet-Dog Shake” value is listed as 78%.

For the compound `O=C(N[C@H](Cc1ncccn1)[C@@H](O)CF)c1cccc(F)c1-c1cc(-c2ccc(F)cc2)[nH]n1` [Example 50-2], the “% inhibition of Wet-Dog Shake” value is 89%.

On to `O=C(N[C@H](Cc1ncccn1)C(F)(F)CO)c1cccc(F)c1-c1cc(-c2ccc(F)cc2)[nH]n1` [Example 50-4], for which the “% inhibition of Wet-Dog Shake” value worked out at 100%.

Consider `O=C(N[C@H](Cc1ccccn1)[C@H](F)CO)c1cccc(F)c1-c1cc(-c2ccc(Cl)cc2)[nH]n1` [Example 50-7], for which the “% inhibition of Wet-Dog Shake” value stood at 99%.

With `O=C(N[C@H](Cn1cccn1)[C@@H](O)CF)c1cccc(F)c1-c1cc(-c2ccc(F)cc2)[nH]n1` [Example 50-8], the “% inhibition of Wet-Dog Shake” value worked out at 82%.

Regarding `O=C(N[C@H](Cn1cccn1)[C@@H](F)CO)c1cccc(F)c1-c1cc(-c2ccc(F)cc2)[nH]n1` [Example 50-11], the “% inhibition of Wet-Dog Shake” value worked out at 100%.

`O=C(N[C@@H](CCO)C(O)c1ccccn1)c1cccc(F)c1-c1cc(-c2ccc(F)cc2)[nH]n1` (stereo partly shown) [Example 54-3]: the “% inhibition of Wet-Dog Shake” value is given as 62%.

On to `C[C@H](O)C[C@H](NC(=O)c1cccc(F)c1-c1cc(-c2ccc(F)cc2)[nH]n1)C(O)c1ccccn1` (stereo partly shown) [Example 54-4], for which the “% inhibition of Wet-Dog Shake” value is on record as 50%.

As to `O=C(N[C@H](Cc1ccccn1)[C@@H](O)CO)c1cccc(F)c1-c1cc(-c2ccc(F)cc2)[nH]n1` [Example 54-6], the “% inhibition of Wet-Dog Shake” value stood at 47%.

As to `O=C(N[C@H](Cc1ccccn1)C[C@H](O)CO)c1cccc(F)c1-c1cc(-c2ccc(Cl)cc2)[nH]n1` [Example 54-7], the “% inhibition of Wet-Dog Shake” value came to 41%.
